Patent US10613078B2, “Assays for measuring cardiotoxicity” (NCARDIA B.V., priority 2015, dated 2020)

Test system: human stem-cell derived cardiomyocytes
Experiment: Promega ATP assay (CellTiter-Glo luminescent cell viability) on cardiomyocytes
Type: cell-based
Text: Cells were dissociated at day 21 using 10× TrypLE select and replated at 20.000 cells/well in white 96-well plates (Corning 655098) and treated according to the protocol shown in FIG. 1. Alternatively, Pluricyte Cardiomyocytes were obtained from Pluriomics (Leiden, The Netherlands). The cryopreserved cells were recovered in maintained in Pluricyte Medium (Pluriomics, Leiden, The Netherlands) and thereafter cultivated on medium without glucose and/or galactose but comprising fatty acids and carnitine as described below. […]
After two days, an ATP viability assay was performed. ATP values were measured using the Promega Cell titer Glo luminescent cell viability kit according to manufacturers instructions. […] Available ATP is measured via an ATP dependent conversion of Luciferin by a recombinant Luciferase, which produces oxyluciferin and light. The amount of luminescence generated is therefore directly proportional to the amount of ATP in the cells.

COc1cccc2c1C(=O)c1c(O)c3c(c(O)c1C2=O)C[C@@](O)(C(=O)CO)C[C@@H]3O[C@H]1C[C@H](N)[C@H](O)[C@H](C)O1 [doxorubicin]
effect on ATP levels (cardiomyocytes cultivated in the presence of glucose, various concentrations of doxorubicin, n=6 (FIG. 2)): shows a clear effect on ATP levels | mitochondrial toxicity (ATP levels), CM versus CM− medium (cells grown in CM (with glucose) compared with CM− (without glucose and galactose, with fatty acids and carnitine) (FIG. 3, lower panel)): more pronounced in cells cultured in CM−
